Experimental data from patent publication EP3355943B1, “METHODS AND SYSTEMS FOR TREATING MEDICAL DEVICES AND FLUIDS” (Ethicon, Inc., priority 2015, dated 2017).
Marks after values point to notes of the source that are not given here.

Assay: Kinetics of removal of LPS with different agitation techniques in presence of stearate salts
Assay type: biochemical
Set-up: Endotoxin Detected: unit not given here
Settings: for Endotoxin Detected (EU) / Endotoxin Detected: 5mL SRW, baseline 1,502; for Percent (%) Removed: vs SRW Baseline; for Endotoxin Detected: Table 18
Procedure: 5mL of SRW was added to each of the tubes. Each solution was tested for endotoxin removal after agitation based on with sonication, vortexing, or test tube rolling. Sonication samples were sonicated at each indicated time interval for 30 seconds at a magnitude of 30. Vortex samples were vortexed at each indicated time interval for 30 seconds at 2500 RPM. Rolling samples were constantly rolling at 10 rpm. The samples were tested on the MCS for endotoxin at 1 minute, 20 minutes, 40 minutes, 60 minutes, and 80 minutes.

Molecule	Percent (%) Removed (Rolling, 1 minute)	Percent (%) Removed (Rolling, 20 minutes)	Percent (%) Removed (Rolling, 40 minutes)	Percent (%) Removed (Rolling, 60 minutes)	Percent (%) Removed (Rolling, 80 minutes)	Percent (%) Removed (Sonication, 1 minute)	Percent (%) Removed (Sonication, 20 minutes)	Percent (%) Removed (Sonication, 40 minutes)	Percent (%) Removed (Sonication, 60 minutes)	Percent (%) Removed (Sonication, 80 minutes)	Percent (%) Removed (Vortexing, 1 minute)	Percent (%) Removed (Vortexing, 20 minutes)	Percent (%) Removed (Vortexing, 40 minutes)	Percent (%) Removed (Vortexing, 60 minutes)	Percent (%) Removed (Vortexing, 80 minutes)	other results
CCCCCCCCCCCCCCCCCC(=O)O [Magnesium Stearate]	29.4%	25.4%	29.4%	25.4%	20.8%	50.5%	52.3%	45.1%	41.1%	53.2%	41.1%	33.4%	40%	36.2%	29.4%	Endotoxin Detected (EU) (Rolling, 1 minute): 1,060 EU; Endotoxin Detected (EU) (Rolling, 20 minutes): 1,120 EU; Endotoxin Detected (EU) (Rolling, 40 minutes): 1,060 EU; Endotoxin Detected (EU) (Rolling, 60 minutes): 1,120 EU; Endotoxin Detected (EU) (Rolling, 80 minutes): 1,190 EU; Endotoxin Detected (EU) (Sonication, 1 minute): 743 EU; Endotoxin Detected (EU) (Sonication, 20 minutes): 716 EU; Endotoxin Detected (EU) (Sonication, 40 minutes): 824 EU; Endotoxin Detected (EU) (Sonication, 60 minutes): 884 EU; Endotoxin Detected (EU) (Sonication, 80 minutes): 703 EU; Endotoxin Detected (EU) (Vortexing, 1 minute): 884 EU; Endotoxin Detected (EU) (Vortexing, 20 minutes): 1,000 EU; Endotoxin Detected (EU) (Vortexing, 40 minutes): 901 EU; Endotoxin Detected (EU) (Vortexing, 60 minutes): 958 EU; Endotoxin Detected (EU) (Vortexing, 80 minutes): 1,060 EU
Aluminum Monostearate	85.3%	16.1%	17.4%	55.3%	18.8%	58.3%	73%	75%	71.1%	80.6%	45.6%	43.5%	47.7%	46.7%	49.6%	Endotoxin Detected (Rolling, 1 minute): 221*; Endotoxin Detected (Rolling, 20 minutes): 1,260; Endotoxin Detected (Rolling, 40 minutes): 1,240; Endotoxin Detected (Rolling, 60 minutes): 672; Endotoxin Detected (Rolling, 80 minutes): 1,220; Endotoxin Detected (Sonication, 1 minute): 626; Endotoxin Detected (Sonication, 20 minutes): 406; Endotoxin Detected (Sonication, 40 minutes): 375; Endotoxin Detected (Sonication, 60 minutes): 434; Endotoxin Detected (Sonication, 80 minutes): 291; Endotoxin Detected (Vortexing, 1 minute): 817; Endotoxin Detected (Vortexing, 20 minutes): 849; Endotoxin Detected (Vortexing, 40 minutes): 786; Endotoxin Detected (Vortexing, 60 minutes): 801; Endotoxin Detected (Vortexing, 80 minutes): 757
